According to ChEMBL document CHEMBL6087454, “Identification of Novel Organo-Se BTSA-Based Derivatives as Potent, Reversible, and Selective PPARγ Covalent Modulators for Antidiabetic Drug Discovery” (J Med Chem, 2025):
The source made the active and inactive calls. The rule behind the calls is not given here.

Key:
[1] = tested on: Mus musculus; assay: Antidiabetic activity in male db/db mouse model assessed as increase in ANGPTL4 protein abundance in liver at 2.5 to 10 mg/kg/day, ip administered for 4 weeks by Western blotting analysis; assay type: functional, organism-based; settings: dose 2.5-10 mg/kg/day
[2] = tested on: Mus musculus; assay: Antidiabetic activity in male db/db mouse model assessed as upregulation of adiponectin gene expression in liver at 2.5 to 10 mg/kg/day, ip administered for 4 weeks by RT-qPCR analysis; assay type: functional, organism-based; settings: dose 2.5-10 mg/kg/day
[3] = tested on: Mus musculus; assay: Antidiabetic activity in male db/db mouse model assessed as downregulation of LPL gene expression in white adipose tissue at 2.5 to 10 mg/kg/day, ip administered for 4 weeks by RT-qPCR analysis; assay type: functional, organism-based; settings: dose 2.5-10 mg/kg/day
[4] = target: T1, Peroxisome proliferator-activated receptor gamma (Homo sapiens) (UniProt P37231); assay: Covalent binding affinity to recombinant PPAR-gamma ligand binding domain (unknown origin) incubated for 30 mins by high-performance liquid chromatography Fourier transform mass spectrometric analysis; settings: filed as partial agonist
T1 sequence (whole entry): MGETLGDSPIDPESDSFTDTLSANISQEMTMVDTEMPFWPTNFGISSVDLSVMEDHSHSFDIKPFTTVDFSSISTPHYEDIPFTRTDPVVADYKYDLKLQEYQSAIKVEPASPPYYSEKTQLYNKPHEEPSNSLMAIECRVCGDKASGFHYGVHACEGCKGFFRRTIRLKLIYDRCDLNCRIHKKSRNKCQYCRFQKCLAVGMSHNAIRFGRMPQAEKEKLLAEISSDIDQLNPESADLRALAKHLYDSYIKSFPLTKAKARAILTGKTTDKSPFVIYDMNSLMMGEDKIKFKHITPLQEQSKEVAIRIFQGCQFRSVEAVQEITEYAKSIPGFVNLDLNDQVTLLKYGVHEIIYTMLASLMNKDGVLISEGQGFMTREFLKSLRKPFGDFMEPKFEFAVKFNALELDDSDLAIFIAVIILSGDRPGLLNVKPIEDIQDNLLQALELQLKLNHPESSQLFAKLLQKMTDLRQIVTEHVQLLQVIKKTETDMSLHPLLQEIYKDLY

[5] = tested on: 3T3-L1; assay: Insulin sensitizing activity in mouse 3T3-L1 cells assessed as downregulation of PTP1B gene expression at 1 uM measured after 48 hrs by RT-qPCR analysis; assay type: functional, cell-based
[6] = target: T2, Peroxisome proliferator-activated receptor gamma (Homo sapiens, UniProt P37231); assay: Binding affinity to recombinant GST-tagged human PPAR-gamma ligand binding domain (E235 to Y505 residues) extracted from Escherichia coli BL21 (DE3) cells assessed as inhibition constant in presence of fluormone pan-PPAR green tracer by TR-FRET assay
T2 sequence (P37231 whole entry): T1 sequence (whole entry)

[7] = tested on: Mus musculus; assay: Antidiabetic activity in male db/db mouse model assessed as downregulation of aP2 gene expression in liver at 2.5 to 10 mg/kg/day, ip administered for 4 weeks by RT-qPCR analysis; assay type: functional, organism-based; settings: dose 2.5-10 mg/kg/day
[8] = tested on: 3T3-L1; assay: Insulin sensitizing activity in mouse 3T3-L1 cells assessed as upregulation of adiponectin gene expression at 1 uM measured after 48 hrs by RT-qPCR analysis; assay type: functional, cell-based
[9] = tested on: Mus musculus; assay: Antidiabetic activity in male db/db mouse model assessed as reduction in fasting blood glucose level administered intraperitoneally for 4 weeks; assay type: functional, organism-based; settings: dose 2.5-10 mg/kg/day, route ip
[10] = Toxicity in male db/db mouse model assessed as increase in brown adipose tissue weight at 2.5 to 10 mg/kg/day, ip administered for 4 weeks; assay type: organism-based; settings: in vivo, 672 h, dose 2.5-10 mg/kg/day
[11] = Toxicity in male db/db mouse model assessed as effect on liver weight at 2.5 to 5 mg/kg, ip administered for 4 weeks; assay type: organism-based; settings: in vivo, 672 h, dose 2.5-5 mg/kg
[12] = Toxicity in male db/db mouse model assessed as increase in brown adipocytes size at 2.5 to 10 mg/kg/day, ip administered for 4 weeks by H and E staining based analysis; assay type: organism-based; settings: in vivo, 672 h, dose 2.5-10 mg/kg/day
[13] = tested on: Mus musculus; assay: Antidiabetic activity in male db/db mouse model assessed as improvement in insulin tolerance at 2.5 to 10 mg/kg/day, ip preadministered for 4 weeks followed by glucose administration after 4 to 6 hrs of fasting and measured after 120 mins by intraperitoneal insulin tolerance test; assay type: functional, organism-based; settings: dose 2.5-10 mg/kg/day
[14] = Toxicity in male db/db mouse model assessed as increase in lipid accumulation in liver at 2.5 to 10 mg/kg/day, ip administered for 4 weeks by Oil red O staining based analysis; assay type: organism-based; settings: in vivo, 672 h, dose 2.5-10 mg/kg/day
[15] = tested on: Mus musculus; assay: Antidiabetic activity in male db/db mouse model assessed as downregulation of SOCS3 gene expression in white adipose tissue at 2.5 to 10 mg/kg/day, ip administered for 4 weeks by RT-qPCR analysis; assay type: functional, organism-based; settings: dose 2.5-10 mg/kg/day
[16] = Toxicity in male db/db mouse model assessed as effect on heart morphology at 2.5 to 10 mg/kg/day, ip administered for 4 weeks; assay type: organism-based; settings: in vivo, 672 h, dose 2.5-10 mg/kg/day
[17] = tested on: Mus musculus; assay: Antidiabetic activity in male db/db mouse model assessed as increase in Glut4 protein abundance in liver at 2.5 to 10 mg/kg/day, ip administered for 4 weeks by Western blotting analysis; assay type: functional, organism-based; settings: dose 2.5-10 mg/kg/day
[18] = tested on: 3T3-L1; assay: Inhibition of adipogenesis in mouse 3T3-L1 cells assessed as downregulation of LPL gene expression at 1 uM measured after 48 hrs by RT-qPCR analysis; assay type: functional, cell-based
[19] = tested on: Mus musculus; assay: Antidiabetic activity in male db/db mouse model assessed as downregulation of PTP1B gene expression in liver at 2.5 to 10 mg/kg/day, ip administered for 4 weeks by RT-qPCR analysis; assay type: functional, organism-based; settings: dose 2.5-10 mg/kg/day
[20] = tested on: Mus musculus; assay: Antidiabetic activity in male db/db mouse model assessed as reduction in random blood glucose level administered intraperitoneally for 4 weeks; assay type: functional, organism-based; settings: dose 2.5-10 mg/kg/day, route ip
[21] = Toxicity in male db/db mouse model assessed as effect on spleen morphology at 2.5 to 10 mg/kg/day, ip administered for 4 weeks; assay type: organism-based; settings: in vivo, 672 h, dose 2.5-10 mg/kg/day
[22] = tested on: Mus musculus; assay: Antidiabetic activity in male db/db mouse model assessed as increase in ANGPTL4 protein abundance in white adipose tissue at 2.5 to 10 mg/kg/day, ip administered for 4 weeks by Western blotting analysis; assay type: functional, organism-based; settings: dose 2.5-10 mg/kg/day
[23] = tested on: Mus musculus; assay: Antidiabetic activity in male db/db mouse model assessed as downregulation of PPARgamma gene expression in liver at 2.5 to 10 mg/kg/day, ip administered for 4 weeks by RT-qPCR analysis; assay type: functional, organism-based; settings: dose 2.5-10 mg/kg/day
[24] = tested on: Mus musculus; assay: Effect on pRb protein expression in male db/db mouse white adipose tissue at 2.5 to 10 mg/kg/day, ip administered for 4 weeks by Western blotting analysis; assay type: functional, organism-based; settings: dose 2.5-10 mg/kg/day
[25] = Toxicity in male db/db mouse model assessed as effect on liver morphology at 2.5 to 5 mg/kg, ip administered for 4 weeks; assay type: organism-based; settings: in vivo, 672 h, dose 2.5-5 mg/kg
[26] = tested on: 3T3-L1; assay: Inhibition of adipogenesis in mouse 3T3-L1 cells assessed as downregulation of CD36 gene expression at 1 uM measured after 48 hrs by RT-qPCR analysis; assay type: functional, cell-based
[27] = Toxicity in male db/db mouse model assessed as increase in white adipocytes size at 2.5 to 10 mg/kg/day, ip administered for 4 weeks by H and E staining based analysis; assay type: organism-based; settings: in vivo, 672 h, dose 2.5-10 mg/kg/day
[28] = tested on: Mus musculus; assay: Effect on cdk5 protein expression in male db/db mouse liver at 2.5 to 10 mg/kg/day, ip administered for 4 weeks by Western blotting analysis; assay type: functional, organism-based; settings: dose 2.5-10 mg/kg/day

With `Cc1ccc(S(=O)(=O)Oc2ccc(S3(=O)=N[Se]c4cc(OS(=O)(=O)c5ccc(C)cc5)ccc43)cc2)cc1` (stereo not drawn) the Activity [1] was “Active”, the Activity [2] was “Active” and the Activity [3] was “Active”. The Activity [4] was “Active; Mass Change Of 633.50 Da For Ppargamma-Lbd Observed”, the Activity [5] was “Active” and the Ki [6] was 124 nM. The Activity [7] was “Active”, the Activity [8] was “Active” and the Activity [9] was “Dose-dependent-effect”. For the same molecule, the Activity [10] was “Non-toxic”, the Activity [11] was “Non-toxic” and the Activity [12] was “Non-toxic”. The Activity [13] was “Active”, the Activity [14] was “Non-toxic” and the Activity [15] was “Active”. The Activity [16] was “Non-toxic”, the Activity [17] was “Active” and the inhibition [18] was “Active”. For the same molecule, the Activity [19] was “Active”, the Activity [20] was “Dose-dependent-effect” and the Activity [21] was “Non-toxic”. The Activity [22] was “Active”, the Activity [23] was “Active” and the Activity [24] was “inactive”. For the same molecule, the Activity [25] was “Non-toxic”, the inhibition [26] was “Active” and the Activity [27] was “Non-toxic”. The Activity [28] was “inactive”.
